The values below come from ChEMBL document CHEMBL1132652, “Design and synthesis of isoxazoline derivatives as factor Xa inhibitors. 2” (J Med Chem, 1999).

For orientation: Ki means the equilibrium dissociation constant of an inhibitor or competing ligand from its target. A low value points to tighter binding. Usually clearance stands for the volume of plasma or blood freed of the substance per unit of time. A lower clearance goes with a low capacity for elimination. One may read the half-life as the time in which the quantity being followed falls by half.

Bounds are passed on as bounds.

The species named for one data set is Oryctolagus cuniculus. Put plainly: Inhibitory activity against thrombus formation in rabbit using Arterio-Venous Shunt Thrombosis Model. It counts as functional.
The target of a further data set is Serine protease 1 (Homo sapiens, UniProt P07477). The experiment in a line: Binding affinity towards trypsin obtained from human purified enzymes.
A short description of data set [1]: In vivo clearance (5 mg/kg) was determined in rabbits. It counts as ADME, organism-based, Oryctolagus cuniculus. Particulars: rabbit.
A further data set has as its target Coagulation factor X (Homo sapiens, UniProt P00742). Put plainly: Binding affinity towards human purified Coagulation factor Xa (FXa).
For another data set, the target named is Prothrombin (Homo sapiens, UniProt P00734). Put plainly: Binding affinity towards thrombin obtained from human purified enzymes.
A short description of data set [2]: The plasma half life (5 mg/kg) was measured in rabbits. It counts as ADME, organism-based, Oryctolagus cuniculus. Particulars: rabbit.

Coagulation factor X, sequence (P00742 41-179 limits assumed): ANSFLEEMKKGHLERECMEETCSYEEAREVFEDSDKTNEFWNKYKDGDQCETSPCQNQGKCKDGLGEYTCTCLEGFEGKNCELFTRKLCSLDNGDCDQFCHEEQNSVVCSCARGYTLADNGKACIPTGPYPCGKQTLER
Coagulation factor X, sequence (P00742 235-488 limits assumed): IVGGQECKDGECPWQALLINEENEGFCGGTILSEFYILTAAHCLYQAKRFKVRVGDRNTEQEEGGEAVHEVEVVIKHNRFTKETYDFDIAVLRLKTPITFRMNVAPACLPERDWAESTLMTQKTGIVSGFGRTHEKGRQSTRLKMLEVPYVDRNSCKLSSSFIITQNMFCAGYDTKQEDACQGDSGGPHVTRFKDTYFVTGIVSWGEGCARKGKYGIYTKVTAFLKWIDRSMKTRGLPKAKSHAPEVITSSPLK
Serine protease 1, sequence (P07477 whole entry): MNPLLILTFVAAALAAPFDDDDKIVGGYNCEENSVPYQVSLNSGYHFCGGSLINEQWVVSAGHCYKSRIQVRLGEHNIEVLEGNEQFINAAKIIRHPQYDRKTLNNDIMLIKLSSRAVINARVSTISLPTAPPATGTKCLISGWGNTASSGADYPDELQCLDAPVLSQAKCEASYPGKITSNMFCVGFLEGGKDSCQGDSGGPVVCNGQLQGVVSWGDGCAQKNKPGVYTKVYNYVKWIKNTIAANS

For the compound `CCOCC1(C(=O)Nc2ccc(-c3ccccc3S(N)(=O)=O)cn2)CC(c2cccc(C(=N)N)c2)=NO1` (stereo not given) [listing 1 of 2 here], the ID50 in the data set filed under Oryctolagus cuniculus came to 0.8 µM/h/kg. In addition, the inhibition constant (Ki) on Serine protease 1 turned out to be 25 nM; at Coagulation factor X, 0.8 nM; at Prothrombin it was 5000 nM. The compound further showed a clearance in data set [1] of 21.7 mL/min/kg. For the same compound, in data set [2], the half-life is 36 min.

In the case of `N=C(N)c1cccc(C2=NOC(Cn3cnnn3)(C(=O)Nc3ncc(-c4ccccc4S(N)(=O)=O)cn3)C2)c1` (stereo not given) [listing 1 of 2 here], the Ki turned out to be 120 nM on Serine protease 1, 0.32 nM at Coagulation factor X and 3000 nM at Prothrombin.

`CCOCC1(C(=O)Nc2ccc(-c3ccccc3S(N)(=O)=O)cc2)CC(c2cccc(C(=N)N)c2)=NO1` (stereo not given) [listing 1 of 2 here] displayed an ID50 in the data set filed under Oryctolagus cuniculus of 0.74 µM/h/kg. Further, the Ki was determined as 86 nM at Serine protease 1, 3.3 nM on Coagulation factor X and 2100 nM on Prothrombin. Also, the clearance in data set [1] is 8.17 mL/min/kg. The compound also gave a half-life in data set [2] of 37.8 min.

With `N=C(N)c1cccc(C2=NOC(Cn3cnnn3)(C(=O)Nc3ccc(-c4ccccc4S(N)(=O)=O)cc3)C2)c1` (stereo not given) [listing 1 of 2 here], in the data set filed under Oryctolagus cuniculus, the ID50 worked out at 0.035 µM/h/kg. Moreover, the Ki at Serine protease 1 is 45 nM; at Coagulation factor X it was 0.52 nM; at Prothrombin, 400 nM. In data set [1], this compound had a clearance of 5 mL/min/kg. This compound gave a half-life in data set [2] of 36 min.

Regarding `CCCNS(=O)(=O)c1ccccc1-c1ccc(NC(=O)C2(Cn3cnnn3)CC(c3cccc(C(=N)N)c3)=NO2)cc1` (stereo not given), the Ki at Serine protease 1 turned out to be 49 nM; on Coagulation factor X it was 2.1 nM; on Prothrombin, 70 nM.

With `COC(=O)CC1(C(=O)Nc2ccc(-c3ccccc3S(N)(=O)=O)cc2)CC(c2cccc(C(=N)N)c2)=NO1.O=C(O)C(F)(F)F` (stereo not given), the ID50 in the data set filed under Oryctolagus cuniculus came out at 0.6 µM/h/kg. In addition, the Ki was 110 nM on Serine protease 1 and 3100 nM on Prothrombin. This compound had a clearance in data set [1] of 3.5 mL/min/kg. In addition, the half-life in data set [2] is 55.2 min.

Regarding `N=C(N)c1cccc(C2=NOC(Cc3ccccc3)(C(=O)Nc3ccc(-c4ccccc4S(N)(=O)=O)cc3)C2)c1` (stereo not given), the Ki on Serine protease 1 came to 80 nM; at Coagulation factor X, 8.5 nM; on Prothrombin, 1300 nM.

`CCSCC1(C(=O)Nc2ncc(-c3ccccc3S(N)(=O)=O)cn2)CC(c2cccc(C(=N)N)c2)=NO1` (stereo not given): the Ki on Serine protease 1 worked out at 350 nM; on Coagulation factor X, 2.4 nM; on Prothrombin, 10000 nM.

Consider `N=C(N)c1cccc(C2=NOC(CC(=O)O)(C(=O)Nc3ccc(-c4ccccc4S(N)(=O)=O)cc3)C2)c1.O=C(O)C(F)(F)F` (stereo not given), for which the ID50 in the data set filed under Oryctolagus cuniculus is >4.8 µM/h/kg. Further, the Ki at Serine protease 1 is 630 nM; at Coagulation factor X it was 20 nM; on Prothrombin, > 21000 nM. In addition, in data set [1], the clearance was 4.67 mL/min/kg. Besides, the half-life in data set [2] is 94.2 min.

As to `CCOCC1(C(=O)Nc2ccc(-c3ccccc3S(N)(=O)=O)cn2)CC(c2cccc(C(=N)N)c2)=NO1` (stereo not given) [listing 2 of 2 here], the Ki was 40 nM at Serine protease 1, 2.8 nM at Coagulation factor X and 8400 nM on Prothrombin.

As to `CNS(=O)(=O)c1ccccc1-c1ccc(NC(=O)C2(Cn3cnnn3)CC(c3cccc(C(=N)N)c3)=NO2)cc1` (stereo not given), the Ki at Serine protease 1 was found to be 49 nM; at Coagulation factor X, 0.92 nM; at Prothrombin, 100 nM.

Turning to `N=C(N)c1cccc(C2=NOC(Cn3cnnn3)(C(=O)Nc3ccc(-c4ccccc4S(N)(=O)=O)cc3Cl)C2)c1.O=C(O)C(F)(F)F` (stereo not given), the ID50 in the data set listed under Oryctolagus cuniculus came to 0.25 µM/h/kg. Further, the Ki at Serine protease 1 came out at 47 nM; at Coagulation factor X, 0.15 nM; at Prothrombin it was 300 nM. The compound further gave a clearance in data set [1] of 13.3 mL/min/kg. Further, the half-life in data set [2] is 48 min.

With `N=C(N)c1cccc(C2=NOC(Cn3cnnn3)(C(=O)Nc3ccc(-c4ccccc4S(N)(=O)=O)cc3F)C2)c1` (stereo not given), the Ki came to 110 nM at Serine protease 1, 0.44 nM on Coagulation factor X and 500 nM at Prothrombin.

Turning to `CCSCC1(C(=O)Nc2ccc(-c3ccccc3S(N)(=O)=O)cn2)CC(c2cccc(C(=N)N)c2)=NO1` (stereo not given), the values for the Ki at Serine protease 1, at Coagulation factor X and at Prothrombin were 54 nM, 2.2 nM and 2800 nM, respectively.

Turning to `COC(=O)CC1(C(=O)Nc2ncc(-c3ccccc3S(N)(=O)=O)cn2)CC(c2cccc(C(=N)N)c2)=NO1` (stereo not given), the Ki at Serine protease 1 came to 330 nM; at Coagulation factor X it was 4.3 nM; at Prothrombin, 14000 nM.

As to `N=C(N)c1cccc(C2=NOC(Cn3cnnn3)(C(=O)Nc3ncc(-c4ccccc4S(N)(=O)=O)cn3)C2)c1` (stereo not given) [listing 2 of 2 here], the Ki on Serine protease 1 came out at 500 nM; on Coagulation factor X it was 1.3 nM; on Prothrombin, 7700 nM.

Consider `CCCOCC1(C(=O)Nc2ccc(-c3ccccc3S(N)(=O)=O)cc2)CC(c2cccc(C(=N)N)c2)=NO1` (stereo not given), for which the figures for the Ki at Serine protease 1, on Coagulation factor X and on Prothrombin were 90 nM, 2.9 nM and 4300 nM, respectively.

Take `COC(=O)CC1(C(=O)Nc2ccc(-c3ccccc3S(N)(=O)=O)cn2)CC(c2cccc(C(=N)N)c2)=NO1` (stereo not given): the results for the Ki at Serine protease 1, at Coagulation factor X and on Prothrombin were 52 nM, 2.3 nM and 3900 nM, respectively.

As to `COCC1(C(=O)Nc2ncc(-c3ccccc3S(N)(=O)=O)cn2)CC(c2cccc(C(=N)N)c2)=NO1` (stereo not given), the Ki at Serine protease 1 was 390 nM; on Coagulation factor X it was 9.9 nM; on Prothrombin, 16000 nM.

Turning to `CC(C)OCC1(C(=O)Nc2ccc(-c3ccccc3S(N)(=O)=O)cc2)CC(c2cccc(C(=N)N)c2)=NO1` (stereo not given), the Ki was found to be 120 nM on Serine protease 1, 4.3 nM on Coagulation factor X and 4500 nM on Prothrombin.

For `N=C(N)c1cccc(C2=NOC(Cn3cnnn3)(C(=O)Nc3ccc(-c4ccccc4S(N)(=O)=O)cc3)C2)c1` (stereo not given) [listing 2 of 2 here], the Ki at Serine protease 1 turned out to be 91 nM; on Coagulation factor X, 1.6 nM; on Prothrombin it was 900 nM.

Take `COCC1(C(=O)Nc2ccc(-c3ccccc3S(N)(=O)=O)cc2)CC(c2cccc(C(=N)N)c2)=NO1` (stereo not given): the Ki on Serine protease 1 was 70 nM; at Coagulation factor X, 3.4 nM; at Prothrombin, 2400 nM.

Regarding `CC(C)COCC1(C(=O)Nc2ccc(-c3ccccc3S(N)(=O)=O)cc2)CC(c2cccc(C(=N)N)c2)=NO1` (stereo not given), the Ki at Serine protease 1 came to 140 nM; at Coagulation factor X it was 37 nM; on Prothrombin it was 3900 nM.

As for `CCOCC1(C(=O)Nc2ncc(-c3ccccc3S(N)(=O)=O)cn2)CC(c2cccc(C(=N)N)c2)=NO1` (stereo not given), the Ki was 330 nM on Serine protease 1, 6.8 nM on Coagulation factor X and > 21000 nM on Prothrombin.

For the compound `CCOCC1(C(=O)Nc2ccc(-c3ccccc3S(N)(=O)=O)cc2)CC(c2cccc(C(=N)N)c2)=NO1` (stereo not given) [listing 2 of 2 here], the Ki on Serine protease 1 amounted to 70 nM; on Coagulation factor X, 3.5 nM; at Prothrombin it was 3100 nM.

Regarding `CCS(=O)(=O)CC1(C(=O)Nc2ncc(-c3ccccc3S(N)(=O)=O)cn2)CC(c2cccc(C(=N)N)c2)=NO1` (stereo not given), the Ki at Serine protease 1 worked out at 290 nM; on Coagulation factor X, 5.3 nM; at Prothrombin, 13000 nM.

Take `Cc1cc(-c2ccccc2S(N)(=O)=O)ccc1NC(=O)C1(Cn2cnnn2)CC(c2cccc(C(=N)N)c2)=NO1` (stereo not given): the Ki at Serine protease 1 worked out at 200 nM; at Coagulation factor X, 1 nM; at Prothrombin, 300 nM.

Regarding `CCCCOCC1(C(=O)Nc2ccc(-c3ccccc3S(N)(=O)=O)cc2)CC(c2cccc(C(=N)N)c2)=NO1` (stereo not given), the Ki on Serine protease 1 is 113 nM; on Coagulation factor X, 13 nM; at Prothrombin, 4000 nM.

Take `CC1(C(=O)Nc2ccc(-c3ccccc3S(N)(=O)=O)cc2)CC(c2cccc(C(=N)N)c2)=NO1` (stereo not given): the figures for the Ki on Serine protease 1, on Coagulation factor X and at Prothrombin were 120 nM, 11 nM and 5800 nM, respectively.

Turning to `CCS(=O)(=O)CC1(C(=O)Nc2ccc(-c3ccccc3S(N)(=O)=O)cc2)CC(c2cccc(C(=N)N)c2)=NO1` (stereo not given), the Ki was 72 nM at Serine protease 1, 3.5 nM on Coagulation factor X and 2000 nM on Prothrombin.

Turning to `N=C(N)c1cccc(C2=NOC(Cn3cncn3)(C(=O)Nc3ccc(-c4ccccc4S(N)(=O)=O)cc3)C2)c1` (stereo not given), the Ki was 47 nM on Serine protease 1, 1.7 nM on Coagulation factor X and 3400 nM on Prothrombin.

`N=C(N)c1cccc(C2=NOC(C(=O)Nc3ccc(-c4ccccc4S(N)(=O)=O)cc3)(C(F)(F)F)C2)c1` (stereo not given): the figures for the Ki on Serine protease 1, at Coagulation factor X and at Prothrombin were 310 nM, 23 nM and 6100 nM, respectively.

Take `N=C(N)c1cccc(C2=NOC(Cn3cnnn3)(C(=O)Nc3ccc(-c4ccccc4S(N)(=O)=O)cn3)C2)c1` (stereo not given) [listing 1 of 2 here]: the ID50 in the data set listed under Oryctolagus cuniculus came to 0.032 µM/h/kg. For the same compound, the Ki stood at 18 nM on Serine protease 1, 0.11 nM on Coagulation factor X and 900 nM on Prothrombin. In addition, in data set [1], the clearance was 8.33 mL/min/kg. In data set [2], the half-life was 42 min.

For the compound `N=C(N)c1cccc(C2=NOC(Cn3ncnn3)(C(=O)Nc3ccc(-c4ccccc4S(N)(=O)=O)cc3)C2)c1` (stereo not given), the Ki at Serine protease 1 stood at 91 nM; on Coagulation factor X it was 1.6 nM; at Prothrombin it was 2900 nM.

For the compound `N=C(N)c1cccc(C2=NOC(C(=O)Nc3ccc(-c4ccccc4S(N)(=O)=O)cc3)C2)c1` (stereo not given), the Ki is 83 nM on Serine protease 1, 7.2 nM at Coagulation factor X and 3900 nM on Prothrombin.

Take `CC1(C(=O)Nc2ccc(-c3ccccc3S(N)(=O)=O)cn2)CC(c2cccc(C(=N)N)c2)=NO1` (stereo not given): the Ki on Serine protease 1 came to 41 nM; at Coagulation factor X, 4.1 nM; on Prothrombin it was 8100 nM.

Regarding `COCC1(C(=O)Nc2ccc(-c3ccccc3S(N)(=O)=O)cn2)CC(c2cccc(C(=N)N)c2)=NO1` (stereo not given), the Ki worked out at 45 nM on Serine protease 1, 2.5 nM at Coagulation factor X and 7400 nM on Prothrombin.

With `N=C(N)c1cccc(C2=NOC(Cn3cnnn3)(C(=O)Nc3ccc(-c4ccccc4S(N)(=O)=O)cn3)C2)c1` (stereo not given) [listing 2 of 2 here], the Ki on Serine protease 1 came out at 31 nM; at Coagulation factor X, 0.17 nM; on Prothrombin it was 1100 nM.

For the compound `CCS(=O)(=O)CC1(C(=O)Nc2ccc(-c3ccccc3S(N)(=O)=O)cn2)CC(c2cccc(C(=N)N)c2)=NO1` (stereo not given), the Ki on Serine protease 1 is 72 nM; at Coagulation factor X, 1.7 nM; on Prothrombin, 5800 nM.

On to `COCCC1(C(=O)Nc2ccc(-c3ccccc3S(N)(=O)=O)cc2)CC(c2cccc(C(=N)N)c2)=NO1` (stereo not given), for which the Ki on Serine protease 1 is 98 nM; on Coagulation factor X it was 5 nM; on Prothrombin, 4400 nM.
